The record followed here is article PMC2992995, “Characterization and Online Detection of Surfactin Isomers Based on HPLC-MS^n Analyses and Their Inhibitory Effects on the Overproduction of Nitric Oxide and the Release of TNF-α and IL-6 in LPS-Induced Macrophages” (Marine Drugs, 2010).

Common to all, as to type: cell-based, murine
For test [1], the system named is IL-6 production induced by LPS in RAW264.7 cells. Put plainly: Inhibition of IL-6 release induced by LPS (ELISA). To be noted: LPS 1 μg/mL, 6 h, samples 1–30 μM, mouse IL-6 ELISA of culture supernatant, means of four experiments. As to the method:
(§1) RAW264.7 cells were incubated in RPMI 1640 medium supplemented with penicillin (100 U/mL), streptomycin (100 μg/mL) and 10% heat inactivated fetal bovine serum at 37 °C in a humidified incubator with 5% CO2.
Cells were treated by LPS (1 μg/mL) with or without samples (1–9, 1–30 μM) for 6 h. 100 μL of the culture supernatant was taken out to determine the level of TNF-α and IL-6 using respective enzyme-linked immunosorbent assay kit according to the manufacturer’s recommendations. Hydrocortisone was used as positive control.

For test [2], the system named is TNF-α production induced by LPS in RAW264.7 cells. Put plainly: Inhibition of TNF-α release induced by LPS (ELISA). As to conditions: LPS 1 μg/mL, 6 h, samples 1–30 μM, mouse TNF-α ELISA of culture supernatant, means of four experiments. As to the method: as §1
[…] 100 μL of the culture supernatant was taken out to determine the level of TNF-α and IL-6 using respective enzyme-linked immunosorbent assay kit according to the manufacturer’s recommendations. Hydrocortisone was used as positive control.

The subject of test [3] is NO production induced by LPS in RAW264.7 cells. Put plainly: Inhibition of NO production induced by LPS (Griess nitrite assay). As to conditions: Mus musculus, LPS 1 μg/mL, 24 h, samples 1–30 μM, Griess reagent, means of four experiments. As to the method: as §1
Nitric oxide was determined by measuring the amount of nitrite in the cell culture supernatant, using Griess reagent (mixture of equal volume of reagent A and reagent B, (A): 1% sulphanilamide; (B): 0.1% naphthylethylene diamine dihydrochloride in 10% H3PO4). Hydrocortisone was used as positive control. RAW264.7 cells were treated by lipopolysaccharides (LPS, 1 μg/mL) with or without samples (1–9, 1–30 μM) for 24 h, then briefly centrifuged. 100 μL of the cell culture supernatant were mixed with 100 μL of Griess reagent, followed by incubation for 10 min at room temperature. The absorbance at 540 nm was measured and the inhibitory rates were calculated by using a standard calibration curve prepared from different concentrations of sodium nitrite.

Turning to `C[C@]12CCC(=O)C=C1CC[C@@H]1[C@@H]2[C@@H](O)C[C@@]2(C)[C@H]1CC[C@]2(O)C(=O)CO` [Hydrocortisone], the values for the 50% inhibitory concentration (IC50) in test [1], in test [2] and in test [3] were 63.9 µM, 85.6 µM and 64.3 µM, respectively.
